Measurements from patent US11931332B2, “Phenyl alkyl carbamate compounds for use in preventing or treating neurodegenerative disease” (priority 2020, dated 2024).

Tests used:
Amyloid-beta (Aβ) [1] = assay: Anti-Aβ staining of brain tissue sections (choroid plexus cells) of treated mice; assay type: in vivo, C57BL/6 mice; settings: orally administered for 6 weeks; vs vehicle (30% PEG400) mice; FIG. 9
Method: Amyloid-beta (Aβ) is a substance that is naturally produced and degraded In Vivo. Therefore, in the present invention, it was attempted to determine whether Amyloid-beta production was reduced in the compound of Example 124-treated mice.
C57BL/6 mice were purchased from Samtako bio Korea Co. Ltd (Osan, Korea.) Mice were housed in the room which offers a 12 hours light/dark cycle with a temperature of 20˜22° C. All experiments and animal care were approved by the Institutional Animal Care and Use Committee of Chonnam National University (Korea).
Mice were divided into a vehicle mice group and a drug-treated group, and then the vehicle (30% PEG400) or compound of Example 124 was orally administered for 6 weeks.
Mice were anesthetized with sevoflurane and perfused with PBS. After perfusion, the right hemisphere brain was fixed with 4% paraformaldehyde for one day. The frozen brains were sectioned at 30 um thickness. The tissue sections were blocked with 3% Goat serum and 3% BSA in cold PBS-T (0.15% Tx-100) for 30 min. Sections were then stained using anti-Aβ (ab5078p, millipore) 1:3000 in PBS. After 3 days of primary antibody labeling, sections were incubated with an Alexa Fluor 568 conjugated secondary antibody for 1 day. For each mouse, 8-10 tissue sections were quantified, and the Aβ intensity was measure at 15 choroid plexus cells. The measurement was done using Image J software.

GFAP-positive astrocytes = assay: GFAP immunohistochemistry, activation level of astrocytes in striatum of rotenone mice; assay type: in vivo, C57BL/6 mice; settings: rotenone 30 mg/kg orally, Example 124 40 mg/kg IP once a day for 35 days, FIG. 6
Method: (§1) Mice were randomly divided into four groups: • Group 1: vehicle control mice, • Group 2: Compound of Example 124—treated mice, • Group 3: rotenone treated mice, • Group 4: Compound of Example 124—rotenone treated mice.
(§2) Rotenone was suspended in 0.5% Carboxymethyl cellulose (CMC) sodium salt. Compound of Example 124 were dissolved in Tween 80. 0.5% CMC and Rotenone (30 mg/kg) were administered orally, the compound of Example 124 (40 mg/kg) was injected intraperitoneally (IP) once a day for 35 days (5 weeks).
(§3) Specifically, mice of Biological Experiment Example 1 were anesthetized with sevoflurane and perfused with PBS (phosphate-buffered saline). […]
(§4) To determine whether the compound of Example 124 affects regulating the activities of Rotenone-induced reactive astrocyte and microglia, in the present invention, obtained images of brain tissues stained with GFAP (Astrocyte marker) and Iba-1(microglia marker) antibodies. Through acquired images analyzed the activation level of astrocytes and microglia respectively by measuring fluorescent intensity. […]
(§5) All the images were taken using a fluorescence microscope (Leica DM LB2). […] The signal intensity of GFAP and Iba-1 was measured in the chosen fields of the equal area using Image J.

[2] = tested on: Amyloid-beta precursor protein (APP); assay: Western blot of APP in Alzheimer's disease in vitro model (SH-SY5Y cells transfected with pcDNA3-APPswe); assay type: cell-based, human; settings: Example 124 100 uM, harvested 24 h after treatment, FIG. 7
Method: In the present invention, the amyloid-beta precursor protein (APP) reduction effect of the compound of Example 124 in an In Vitro model of Alzheimer's disease (AD) was confirmed.
SH-SY5Y, a human neuroblastoma cell line, was used, and when the pcDNA3-APPswe vector was transfected, these cells generate an AD-inducing APP.
SH-SY5Y cells were incubated in DMEM with 10% FBS and 1% penicillin/streptomycin. 500,000 cells/well was plated in a 6 well plate and transfected 24 h later.
Cells were transfected with pcDNA3-APPswe or pcDNA3 vectors using Lipofectamine 2000 (Invitrogen). After 4 h incubation, the transfection mixture (Lipofectamine+Vector) was replaced with 10% FBS in DMEM. compound of Example 124 (100 uM) or vehicle was treated in 20 h after transfection.
Cells were harvested 24 h after the compound of Example 124 treatments. Cells were washed twice with ice-cold PBS and lysed in RIPA buffer (1% Triton X-100, 0.5% deoxycholic acid, 0.2% SDS, 150 mM sodium chloride, 2 mM EDTA) with 1 mM PMSF, 2 ug/ml aprotinin, 10 ug/ml leupeptin, and 10 mM sodium fluoride.
The lysate was passed several times through a 26½-gauge syringe needle and centrifuged at 16,200*g for 20 min. The supernatant was quantified with the Bradford assay. 30 ug of protein samples, separated by SDS-PAGE, were transferred to the PVDF membrane. […]

Amyloid-beta (Aβ) [3] = assay: Immunofluorescence of amyloid-beta in primary cultured cortical neurons; assay type: cell-based; settings: primary cortical neurons treated with amyloid-beta and Example 124 (4 uM) together; FIG. 8
Method: Primary cortical neurons were harvested from the E12-14 embryo. Briefly, isolated cortices were incubated for 20 min at 37° C. in HBSS with 0.25% trypsin-EDTA, 0.1% DNase I. The cortices were dissociated by trituration in NBA media (Neurobasal medium with 2% B27, 2 mM 1-glutamine, and 1% penicillin/streptomycin). Cells were plated in poly-D-lysine coated 24-well plates at 50,000 cells/well. After 3 days of culture, Amyloid-beta and compound of Example 124 (4 uM) were treated.
Cortical neurons were fixed for 15 min at room temperature with 4% paraformaldehyde and 4% sucrose in PBS solution. Fixed neurons were incubated with blocking buffer (3% goat serum, 3% BSA in PBS-T (0.15% Triton-X100)) for 30 min at room temperature. After labeling with a primary antibody, cells were incubated with Alexa Fluor 488- or 568-conjugated secondary antibody. Aβ (6e10, Covance, 1:3000) and NeuN (abl77487, Abcam, 1:2000) were used as primary antibody.

[4] = tested on: TH+ neurons (dopaminergic neurons); assay: Immunohistochemistry with tyrosine hydroxylase (TH) antibody, counting of TH+ neurons in rotenone mice; assay type: in vivo, C57BL/6 mice; settings: rotenone 30 mg/kg orally, Example 124 40 mg/kg IP once a day for 35 days, FIG. 3(A-B)
Method: as §1, §2
Dopaminergic neuron loss has been implicated in motor dysfunction in Parkinson's disease. In the present invention, stained the striatum with Tyrosine hydroxylase (TH) antibody to check out whether compound of Example 124 prevents the TH+ neuron cell death by rotenone.
as §3
All the images were taken using a fluorescence microscope (Leica DM LB2). To determine the loss of TH positive neurons and the prevention effect of the compound of Example 124 in the striatum, TH+ neurons were counted by using a cell counter plugin from ImageJ software (NIH).
Immunofluorescence images were analyzed using one-way ANOVA and post hoc analysis using Tukey's post hoc test (GraphPad Prism). […]

[5] = tested on: phosphorylated tau (p-Tau s262); assay: Western blotting of phosphorylated tau (p-Tau s262) in rotenone mice; assay type: in vivo, C57BL/6 mice; settings: Example 124-rotenone-treated group vs rotenone-vehicle group; not significantly; FIG. 4
Method: as §1, §2
(§6) Whole ventral midbrain was homogenized with RIPA buffer containing 1% Triton X 100, 0.5% deoxycholic acid, 0.2% SDS, 150 mM NaCl, 2 mM EDTA, protease inhibitors (PMSF, Aprotinin, NaF, Na3VO4). The homogenate was centrifuged at 13,000 rpm for 30 min on a rotator and the supernatant was used [Vergara, C., et al., Amyloid-beta pathology enhances pathological fibrillary tau seeding induced by Alzheimer PHF in vivo. Acta Neuropathol, 2019. 137(3): p. 397-412.]. Proteins were separated using SDS-PAGE with a concentration gradient of 8-20% SDS gels and transferred onto PVDF membranes (Immobilon P membrane, Millipore). Membranes blocked in 5% skim milk in TBST (Tris-Buffered saline-Tween®20) and immunolabeled with primary antibody, rabbit anti-tyrosine hydroxylase (TH) antibody (1:5000)). […]
(§7) Western blot data were analyzed using a t-test(1-tailed t-test). […]

Iba-1-positive microglia = assay: Iba-1 immunohistochemistry, activation level of microglia in striatum of rotenone mice; assay type: in vivo, C57BL/6 mice
Method: as §1, §2, §3, §4, §5

[6] = tested on: rotenone-induced Parkinson's disease model mice; assay: Foot printing assay (stride length) in rotenone-induced Parkinson's disease model mice; assay type: in vivo, C57BL/6 mice; settings: rotenone 30 mg/kg orally, Example 124 40 mg/kg IP once a day for 35 days
Method: (§8) C57BL/6 mice (n=61) were purchased from Samtako bio korea Co. Ltd (Osan, Korea.) Mice were housed in the room which offers 12 hours light/dark cycle with a temperature of 20˜22° C.
as §1, §2
(§9) In the present invention, in order to confirm whether the compound of Example 124 (compound 124) improves the motor abnormalities found in rotenone-induced Parkinson's disease model mice, rota-rod test, pole test, and foot printing assay test were performed.
Foot printing assay was performed using the Parkinson's disease model mice of Biological Experiment Example 1 as follows. Mice paws were dipped with non-toxic water paints (forelimbs in green and hind limbs in blue). Mice were placed in the corner of the enclosed maze with white paper lined through the maze and allowed to walk along the maze freely. […] Fore limb-stride length and hind limb-stride length were measured using ImageJ (NIH).

[7] = tested on: Phosphorylated alpha-synuclein (s129); assay: Double immunostaining for TH and p-α-synuclein, inclusions in cell bodies of TH+ neurons of rotenone mice; assay type: in vivo, C57BL/6 mice; settings: rotenone 30 mg/kg orally, Example 124 40 mg/kg IP once a day for 35 days; FIG. 5(A-B)
Method: as §1, §2
Specifically, mice of Biological Experiment Example 1 were anesthetized with sevoflurane and perfused with PBS (phosphate-buffered saline). After perfusion, dissected the left hemisphere of the brain from the mice and fixed the right hemisphere brain with 4% PFA for 1 day [Shin, S. J., et al., Jowiseungchungtang Inhibits Amyloid-beta Aggregation and Amyloid-beta-Mediated Pathology in 5XFADMice. Int J Mol Sci, 2018. 19(12).]. The frozen brain was sectioned in the coronal way (30 μm thick) using a cryostat (Leica CM3000, Leica Microsystems, Nussloch, Germany). Sections were stored at deep freezer (−70° C.) until the immunohistochemistry analysis starts.
In all immunofluorescence labeling procedures, rinsed off the brain sections and blocked the tissues with cold PBST (0.1% Triton X-100 in PBS) containing 5% BSA and 5% goat serum at room temperature. […]

[8] = tested on: rotenone-induced Parkinson's disease model mice; assay: Pole test in rotenone-induced Parkinson's disease model mice; assay type: in vivo, C57BL/6 mice; settings: rotenone 30 mg/kg orally, Example 124 40 mg/kg IP once a day for 35 days; vs rotenone group; not significantly; FIG. 1(B-C)
Method: as §8, §1, §2, §9
Pole test was performed using the Parkinson's disease model mice of Biological Experiment Example 1 as follows. […] Each trial was recorded through the camera locating in front of the pole. The time mice turned upside down (head down) and the time it completely climbs down the pole was measured through a recorded video file manually by using the software Boris. Results from manually counted files were scored and presented.

[9] = tested on: Tyrosine hydroxylase (TH); assay: Western blotting of tyrosine hydroxylase (TH) in ventral midbrain protein of rotenone mice; assay type: in vivo, C57BL/6 mice; settings: rotenone 30 mg/kg orally, Example 124 40 mg/kg IP once a day for 35 days, FIG. 3(C-D)
Method: as §1, §2, §6, §7

[10] = tested on: Acetylated alpha-tubulin (Ace-α-tubulin); assay: Western blotting of acetylated alpha-tubulin in rotenone mice; assay type: in vivo, C57BL/6 mice; settings: Example 124-rotenone-treated group; differences between groups not significant; FIG. 4
Method: as §1, §2, §6, §7

CO[C@@H](c1ccccc1Cl)[C@H](C)OC(N)=O [Example 124, 1-(2-chlorophenyl)-(S)-1-methoxypropyl-(S)-2-carbamate]
amount of endogenous amyloid-beta (Aβ intensity) (Amyloid-beta (Aβ) [1]): reduced
activation of astrocytes by rotenone (GFAP intensity) (GFAP-positive astrocytes): attenuated
amount of APP protein (APP/B-actin) [2]: decreased
amount of amyloid-beta (Amyloid-beta (Aβ) [3]): decreased
rotenone-induced TH+ cell death (number of TH positive cells) [4]: significantly blocked
phosphorylation of tau protein (p-Tau s262) [5]: decreased
efficacy in microglia compared with astrocytes (relative Iba-1 and GFAP intensity) (Iba-1-positive microglia; FIG. 6(C-D)): more dramatic and obvious in microglia than in astrocytes
activation of microglia by rotenone (Iba-1 intensity) (Iba-1-positive microglia; rotenone 30 mg/kg orally, Example 124 40 mg/kg IP once a day for 35 days, FIG. 6): attenuated
stride length of forepaw ([6]; FIG. 2(A)): ameliorated
stride length of hind paw ([6]; FIG. 2(B)): ameliorated
accumulation of α-synuclein in the soma (p-α-synuclein inclusions in TH+ neurons) [7]: dramatically decreased
pole test: time climbing down the pole / score [8]: slightly attenuated
tyrosine hydroxylase (TH) expression (TH/B-actin) [9]: increased
α-tubulin acetylation levels [10]: increase
